Data reported in ChEMBL document CHEMBL1201862, “PubChem BioAssay data set” (2004).
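Method: 48-hour compound exposure of cells in 96-well plates, five concentrations, linear interpolation of endpoints. GI50 = concentration required for 50% inhibition of growth.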 The source made the active and inactive calls. Cut-off read from the data, not from the text of the source: active = GI50 up to about 1.1 µM and inactive = higher.

What was measured:
Test in all cases: inhibition of tumour cell growth, NCI panel, 48 h
A498 = tested on: A498
ACHN = tested on: ACHN
BT-549 = tested on: BT-549
EKVX = tested on: EKVX
HT-29 = tested on: HT-29
Hs-578T = tested on: Hs-578T
LOX IMVI = tested on: LOX IMVI
MCF7 = tested on: MCF7
Malme-3M = tested on: Malme-3M
NCI-H23 = tested on: NCI-H23
NCI-H522 = tested on: NCI-H522
OVCAR-5 = tested on: OVCAR-5
OVCAR-8 = tested on: OVCAR-8
RPMI-8226 = tested on: RPMI-8226
SF-295 = tested on: SF-295
SK-MEL-5 = tested on: SK-MEL-5
SNB-19 = tested on: SNB-19
SR = tested on: SR
UACC-257 = tested on: UACC-257
UACC-62 = tested on: UACC-62

Measured: GI50

COC1C(OC(=O)c2ccc(C)[nH]2)C(O)C(Oc2ccc3c(O)c(NC(=O)c4ccc(O)c(CC=C(C)C)c4)c(=O)oc3c2Cl)OC1(C)C (stereo not given)
inactive: A498 17.9 µM | ACHN 38.3 µM | BT-549 17 µM | EKVX 18.7 µM | HT-29 15 µM | Hs-578T 16.1 µM | LOX IMVI 18.1 µM | MCF7 18.4 µM | Malme-3M 15.5 µM | NCI-H23 20.1 µM | NCI-H522 13.2 µM | OVCAR-5 15.9 µM | OVCAR-8 17.9 µM | RPMI-8226 8.22 µM | SF-295 17.7 µM | SK-MEL-5 19.7 µM | SNB-19 15.7 µM | SR 22.5 µM | UACC-257 54 µM | UACC-62 15.7 µM

Cc1[nH]c2ccccc2c1-c1cc(-c2cc(-c3c(C)[nH]c4ccccc34)on2)no1
inactive: A498 > 100 µM | ACHN > 100 µM | BT-549 > 100 µM | EKVX 54.7 µM | HT-29 42.6 µM | Hs-578T 37.2 µM | LOX IMVI 55 µM | MCF7 55 µM | Malme-3M 63.7 µM | NCI-H23 > 100 µM | NCI-H522 34.3 µM | OVCAR-5 > 100 µM | OVCAR-8 > 100 µM | RPMI-8226 85.1 µM | SF-295 40.2 µM | SK-MEL-5 38.5 µM | SNB-19 > 100 µM | SR 38.8 µM | UACC-257 43.1 µM | UACC-62 51.4 µM

N#Cc1c(Nc2ccccc2)[n+]([O-])c2ccc(Cl)cc2[n+]1[O-]
inactive: A498 7.69 µM | ACHN 2.85 µM | BT-549 3.44 µM | EKVX 4.3 µM | HT-29 3.05 µM | Hs-578T 16.6 µM | LOX IMVI 3.1 µM | MCF7 3.64 µM | Malme-3M 7.59 µM | NCI-H23 5.08 µM | NCI-H522 2.16 µM | OVCAR-5 15.8 µM | OVCAR-8 2.77 µM | RPMI-8226 3.28 µM | SF-295 4.52 µM | SK-MEL-5 2.09 µM | SNB-19 5.51 µM | SR 3.16 µM | UACC-257 7.28 µM | UACC-62 3.71 µM

Nc1nc(Cl)cc(NCC2(O)CC(CO)C2)n1 (stereo not given)
inactive: A498 > 100 µM | ACHN > 100 µM | BT-549 > 100 µM | EKVX > 100 µM | HT-29 > 100 µM | Hs-578T > 100 µM | LOX IMVI > 100 µM | MCF7 > 100 µM | Malme-3M > 100 µM | NCI-H23 > 100 µM | NCI-H522 > 100 µM | OVCAR-5 > 100 µM | OVCAR-8 > 100 µM | RPMI-8226 > 100 µM | SF-295 > 100 µM | SK-MEL-5 > 100 µM | SNB-19 > 100 µM | SR > 100 µM | UACC-257 > 100 µM | UACC-62 > 100 µM

C[C@]12CC[C@@H]3c4ccc(OC(=O)c5ccccc5)cc4CC[C@H]3[C@@H]1CC[C@@H]2Oc1c2ccccc2nc2ccccc12
inactive: A498 17.4 µM | ACHN 37 µM | BT-549 9.98 µM | EKVX 1.52 µM | HT-29 5.83 µM | Hs-578T 5.5 µM | LOX IMVI 7.85 µM | MCF7 17 µM | Malme-3M 7.94 µM | NCI-H23 12.4 µM | NCI-H522 8.15 µM | OVCAR-5 16.6 µM | OVCAR-8 13 µM | RPMI-8226 7.69 µM | SF-295 16 µM | SK-MEL-5 8.61 µM | SNB-19 7.45 µM | SR 10 µM | UACC-257 13.6 µM | UACC-62 17.7 µM

COc1ccc(C2OCCN2C)cc1 (stereo not given)
inactive: A498 > 100 µM | ACHN > 100 µM | BT-549 > 100 µM | EKVX > 100 µM | HT-29 > 100 µM | Hs-578T > 100 µM | LOX IMVI 58.2 µM | MCF7 > 100 µM | Malme-3M > 100 µM | NCI-H23 > 100 µM | NCI-H522 > 100 µM | OVCAR-5 > 100 µM | OVCAR-8 > 100 µM | RPMI-8226 > 100 µM | SF-295 > 100 µM | SK-MEL-5 > 100 µM | SNB-19 > 100 µM | SR > 100 µM | UACC-257 > 100 µM | UACC-62 > 100 µM

CC1=C(C(=O)Nc2ccccc2C)C(c2ccc(C3C(C(=O)Nc4ccccc4C)=C(C)NC(C)=C3C(=O)Nc3ccccc3C)cc2)C(C(=O)Nc2ccccc2C)=C(C)N1
inactive: A498 15.5 µM | ACHN 4.52 µM | BT-549 2.75 µM | EKVX 7.31 µM | HT-29 2.03 µM | Hs-578T 14 µM | LOX IMVI 1.63 µM | MCF7 3.37 µM | Malme-3M 2.19 µM | NCI-H23 3.21 µM | NCI-H522 1.89 µM | OVCAR-5 14.1 µM | OVCAR-8 2.8 µM | RPMI-8226 2.51 µM | SF-295 4.57 µM | SK-MEL-5 12.1 µM | SNB-19 11.9 µM | SR 2.67 µM | UACC-257 2.8 µM | UACC-62 2.03 µM

CCO[C@@H]1CCC([S+]([O-])c2ccc(C)cc2)=CO1 (stereo not given in full)
inactive: A498 > 100 µM | ACHN > 100 µM | BT-549 > 100 µM | EKVX > 100 µM | HT-29 > 100 µM | Hs-578T > 100 µM | LOX IMVI > 100 µM | MCF7 > 100 µM | Malme-3M > 100 µM | NCI-H23 > 100 µM | NCI-H522 > 100 µM | OVCAR-5 > 100 µM | OVCAR-8 > 100 µM | RPMI-8226 > 100 µM | SF-295 > 100 µM | SK-MEL-5 > 100 µM | SNB-19 > 100 µM | SR 60.7 µM | UACC-257 > 100 µM | UACC-62 > 100 µM

COC(=O)/C=C(/C(=O)OC)c1cc2ccc3c([nH]c4ccccc43)c(C)c-2c1
inactive: A498 8.04 µM | ACHN 6.61 µM | BT-549 4.78 µM | EKVX 3.76 µM | HT-29 2.78 µM | Hs-578T 3.41 µM | LOX IMVI 3.66 µM | MCF7 2.79 µM | Malme-3M 5.21 µM | NCI-H23 3.96 µM | NCI-H522 2.54 µM | OVCAR-5 3.56 µM | OVCAR-8 3.03 µM | RPMI-8226 3.72 µM | SF-295 4.12 µM | SK-MEL-5 2.88 µM | SNB-19 9.29 µM | SR 2.74 µM | UACC-257 6.95 µM | UACC-62 4.66 µM

COc1cc2oc(=O)cc(C)c2cc1[N+](=O)[O-]
inactive: A498 28.4 µM | ACHN 28.1 µM | BT-549 16.7 µM | EKVX > 59.4 µM | HT-29 23.1 µM | Hs-578T 28.2 µM | LOX IMVI 12.2 µM | MCF7 25.5 µM | Malme-3M 20.1 µM | NCI-H23 21.3 µM | NCI-H522 11.6 µM | OVCAR-5 28.1 µM | OVCAR-8 18.8 µM | RPMI-8226 27 µM | SF-295 51.4 µM | SK-MEL-5 27.3 µM | SNB-19 > 83.6 µM | SR 13 µM | UACC-257 16.3 µM | UACC-62 16.1 µM

O=C(O)C12C3C4(C(=O)O)C1C1(C(=O)O)C2C3(C(=O)O)C41 (stereo not given)
inactive: A498 > 100 µM | ACHN > 100 µM | BT-549 > 100 µM | EKVX > 100 µM | HT-29 > 100 µM | Hs-578T > 100 µM | LOX IMVI > 100 µM | MCF7 > 100 µM | Malme-3M > 100 µM | NCI-H23 > 100 µM | NCI-H522 > 100 µM | OVCAR-5 > 100 µM | OVCAR-8 > 100 µM | RPMI-8226 > 100 µM | SF-295 4.4 µM | SK-MEL-5 > 100 µM | SNB-19 > 100 µM | SR > 100 µM | UACC-257 > 100 µM | UACC-62 > 100 µM

COc1ccccc1-c1c(C#N)c(N)[nH]c(=S)c1C#N
inactive: A498 86.1 µM | ACHN > 100 µM | BT-549 47.9 µM | EKVX 43 µM | HT-29 65.6 µM | Hs-578T 30.9 µM | LOX IMVI 65.2 µM | MCF7 44.5 µM | Malme-3M 80.4 µM | NCI-H23 > 100 µM | NCI-H522 23.2 µM | OVCAR-5 > 100 µM | OVCAR-8 61.4 µM | RPMI-8226 20.5 µM | SF-295 52.8 µM | SK-MEL-5 32.1 µM | SNB-19 > 100 µM | SR 46.5 µM | UACC-257 > 100 µM | UACC-62 55.1 µM

Cc1cn(CC2=NC3CCCCC3N2)c(=O)[nH]c1=O (stereo not given)
inactive: A498 > 100 µM | ACHN > 100 µM | BT-549 > 100 µM | EKVX > 100 µM | HT-29 > 100 µM | Hs-578T > 100 µM | LOX IMVI > 100 µM | MCF7 > 100 µM | Malme-3M > 100 µM | NCI-H23 > 100 µM | NCI-H522 > 100 µM | OVCAR-5 > 100 µM | OVCAR-8 > 100 µM | RPMI-8226 > 100 µM | SF-295 > 100 µM | SK-MEL-5 > 100 µM | SNB-19 > 100 µM | SR > 100 µM | UACC-257 > 100 µM | UACC-62 > 100 µM

COc1c(O)cc2c(c1O)C(=O)C1=C(CCCC1)C2=O
inactive: A498 17.9 µM | ACHN 23 µM | BT-549 23 µM | EKVX 22.6 µM | HT-29 21.7 µM | Hs-578T 21.8 µM | LOX IMVI 14.7 µM | MCF7 33.9 µM | Malme-3M 25.8 µM | NCI-H23 15.5 µM | NCI-H522 13 µM | OVCAR-5 38.4 µM | OVCAR-8 20.4 µM | RPMI-8226 9.53 µM | SF-295 25.2 µM | SK-MEL-5 23.9 µM | SNB-19 31.5 µM | SR 10.8 µM | UACC-257 34 µM | UACC-62 20.3 µM
